Structures are written as SMILES.

This passage reports pest or weed control, plant injury and Corn plant response rating (crop injury, 0 = no effect, 100 = complete kill) results from patent US12077503B2, “Substituted cyclic amides and their use as herbicides” (FMC CORPORATION, priority 2015, dated 2024).

Type in all cases: in vivo
The test system of test [1] is Kochia (Kochia scoparia). As to the kind of experiment: Test A preemergence. As to conditions: Bassia scoparia, pre-emergence, 240 h, read-out: Plant response rating, Kochia; for pest or weed control at 125 g/ha: 125 g ai/ha, visual rating after approx. 10 d, 0 to 100 scale where 0 is no effect and 100 is complete control; for pest or weed control at 125 g/ha / pest or weed control at 500 g/ha: preemergence; for pest or weed control at 500 g/ha: 500 g ai/ha, 0 to 100 scale, 0 = no effect, 100 = complete control. The gist of the method: (§1)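 Preemergence directed soil spray on seeded pots, or postemergence application to plants 2–10 cm, one- to two-leaf. Solvent mixture non-phytotoxic, with surfactant. Scored ~10 d later, visually, 0–100 vs untreated.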

Test [2] deals with ragweed (common ragweed, Ambrosia elatior). Description: Test A preemergence. As to conditions: Ambrosia artemisiifolia, pre-emergence, 240 h, read-out: Plant response rating, Ragweed; for pest or weed control at 125 g/ha: 125 g ai/ha, visual rating after approx. 10 d, 0 to 100 scale where 0 is no effect and 100 is complete control; for pest or weed control at 125 g/ha / pest or weed control at 500 g/ha: preemergence; for pest or weed control at 500 g/ha: 500 g ai/ha, 0 to 100 scale, 0 = no effect, 100 = complete control. The gist of the method: as §1

Test [3] has as its system pigweed (Amaranthus retroflexus). Description: Test A preemergence. To be noted: Amaranthus retroflexus, pre-emergence, 240 h, read-out: Plant response rating, Pigweed; for pest or weed control at 125 g/ha: 125 g ai/ha, visual rating after approx. 10 d, 0 to 100 scale where 0 is no effect and 100 is complete control; for pest or weed control at 125 g/ha / pest or weed control at 500 g/ha: preemergence; for pest or weed control at 500 g/ha: 500 g ai/ha, 0 to 100 scale, 0 = no effect, 100 = complete control.

Test [4] relates to ryegrass, Italian (Italian ryegrass, Lolium multiflorum). Description: Test A preemergence. To be noted: Lolium multiflorum, pre-emergence, 240 h, read-out: Plant response rating, Ryegrass, Italian; for pest or weed control at 125 g/ha: 125 g ai/ha, visual rating after approx. 10 d, 0 to 100 scale where 0 is no effect and 100 is complete control. The gist of the method:
as §1

Test [5] concerns giant foxtail (Setaria faberii). Description: Test A preemergence. To be noted: Setaria faberi, pre-emergence, 240 h, read-out: Plant response rating, Foxtail, Giant; for pest or weed control at 125 g/ha: 125 g ai/ha, visual rating after approx. 10 d, 0 to 100 scale where 0 is no effect and 100 is complete control; for pest or weed control at 125 g/ha / pest or weed control at 500 g/ha: preemergence; for pest or weed control at 500 g/ha: 500 g ai/ha, 0 to 100 scale, 0 = no effect, 100 = complete control. The gist of the method:
as §1

The subject of test [6] is blackgrass (Alopecurus myosuroides). As to the kind of experiment: Test A postemergence. As to conditions: Alopecurus myosuroides, post-emergence, 240 h, read-out: Plant response rating, Blackgrass; for pest or weed control at 125 g/ha: 125 g ai/ha, postemergence, visual injury after approximately 10 d, 0 to 100 scale (0 no effect, 100 complete control). The gist of the method: as §1

Test [7] concerns barnyardgrass (Echinochloa crus-galli). Description: Test A postemergence. To be noted: Echinochloa crus-galli, post-emergence, 240 h, read-out: Plant response rating, Barnyardgrass; for pest or weed control at 125 g/ha: 125 g ai/ha, postemergence, visual injury after approximately 10 d, 0 to 100 scale (0 no effect, 100 complete control). In short, it runs like this: as §1
The subject of test [8] is wheat (Triticum aestivum). Description: Test A postemergence. To be noted: Triticum aestivum, post-emergence, 240 h, read-out: Plant response rating, Wheat; for plant injury at 125 g/ha: 125 g ai/ha, postemergence, visual injury after approximately 10 d, 0 to 100 scale (0 no effect, 100 complete control). In short, it runs like this:
as §1

In test [9] the test system is Kochia (Kochia scoparia). As to the kind of experiment: Test A postemergence. As to conditions: Bassia scoparia, post-emergence, 240 h, read-out: Plant response rating, Kochia; for pest or weed control at 125 g/ha: 125 g ai/ha, postemergence, visual injury after approximately 10 d, 0 to 100 scale (0 no effect, 100 complete control). In short, it runs like this: as §1

The subject of test [10] is ragweed (common ragweed, Ambrosia elatior). Description: Test A postemergence. As to conditions: Ambrosia artemisiifolia, post-emergence, 240 h, read-out: Plant response rating, Ragweed; for pest or weed control at 125 g/ha: 125 g ai/ha, postemergence, visual injury after approximately 10 d, 0 to 100 scale (0 no effect, 100 complete control). The gist of the method:
as §1

Test [11] concerns pigweed (Amaranthus retroflexus). Description: Test A postemergence. As to conditions: Amaranthus retroflexus, post-emergence, 240 h, read-out: Plant response rating, Pigweed; for pest or weed control at 125 g/ha: 125 g ai/ha, postemergence, visual injury after approximately 10 d, 0 to 100 scale (0 no effect, 100 complete control). The gist of the method: as §1
Test [12] deals with Galium (catchweed bedstraw, Galium aparine). Description: Test A postemergence. As to conditions: Galium, post-emergence, 240 h, read-out: Plant response rating, Galium; for pest or weed control at 125 g/ha: 125 g ai/ha, postemergence, visual injury after approximately 10 d, 0 to 100 scale (0 no effect, 100 complete control). In short, it runs like this:
as §1

Test [13] deals with corn (Zea mays). Description: Test A postemergence. To be noted: Zea mays, post-emergence, 240 h; for Corn plant response rating (crop injury, 0 = no effect, 100 = complete kill) at 125 g/ha: 125 g ai/ha, postemergence, visual injury after approximately 10 d, 0 to 100 scale (0 no effect, 100 complete control). In short, it runs like this:
as §1

In test [14] the test system is ryegrass, Italian (Italian ryegrass, Lolium multiflorum). Description: Test A postemergence. To be noted: Lolium multiflorum, post-emergence, 240 h, read-out: Plant response rating, Ryegrass, Italian; for pest or weed control at 125 g/ha: 125 g ai/ha, postemergence, visual injury after approximately 10 d, 0 to 100 scale (0 no effect, 100 complete control). The gist of the method:
as §1

For test [15], the system named is giant foxtail (Setaria faberii). As to the kind of experiment: Test A postemergence. As to conditions: Setaria faberi, post-emergence, 240 h, read-out: Plant response rating, Foxtail, Giant; for pest or weed control at 125 g/ha: 125 g ai/ha, postemergence, visual injury after approximately 10 d, 0 to 100 scale (0 no effect, 100 complete control). The gist of the method: as §1

Where [16] appears, read: Preemergence, 31 g ai/ha, 0 to 100 scale (0 no effect, 100 complete control).
The mark [17] stands for this setting: Postemergence, 31 g ai/ha, visual injury after approx. 10 d, 0 to 100 scale, 0 no effect, 100 complete control.

Turning to `Cc1ccc([C@H]2CNC(=O)[C@@H]2C(=O)Nc2cccc(F)c2F)c(F)c1` [Compound 720], the pest or weed control at 125 g/ha came out at 20% in test [1]; 0% in test [2]; 0% in [3]; 0% in test [4] (preemergence); 60% in test [5]; 20% in test [6]. In addition, the pest or weed control at 125 g/ha in test [7] was 90%; in test [9] it was 50%; in [10], 0%; in test [11], 0%; in test [12] it was 50%; in test [14] it was 0%. For the same molecule, the pest or weed control at 125 g/ha in test [15] was determined as 20%. The pest or weed control at 500 g/ha in test [1] was 70%; in [2] it was 80%; in test [3], 0%; in test [4] (500 g ai/ha, preemergence, 0 to 100 scale, 0 = no effect, 100 = complete control), 20%; in test [5] it was 90%. The plant injury at 125 g/ha in [8] was found to be 0%. Besides, the Corn plant response rating (crop injury, 0 = no effect, 100 = complete kill) at 125 g/ha in [13] is 0%.

Take `CN1CC[C@@H](c2cccc(C(F)(F)F)c2)[C@H](C(=O)Nc2ccccc2F)C1=O` [Compound 794]: the pest or weed control at 125 g/ha was 0% in [1]; 0% in test [2]; 0% in test [3]; 0% in test [4] (preemergence); 90% in test [5]; 0% in test [6]. Further, the pest or weed control at 125 g/ha in test [7] stood at 30%; in [9], 0%; in test [10], 0%; in test [11], 0%; in test [12], 0%; in [14] it was 0%. Also, the pest or weed control at 125 g/ha in test [15] was determined as 30%. For the same molecule, the pest or weed control at 31 g/ha in test [1] (setting [16]) came to 0%; in test [2] (setting [16]) it was 0%; in [3] (setting [16]) it was 0%; in test [4] (setting [16]) it was 0%; in test [5] (setting [16]), 30%; in [6] (setting [17]), 0%. Further, the pest or weed control at 31 g/ha in test [7] (setting [17]), in test [9] (setting [17]), in test [10] (setting [17]), in test [11] (setting [17]), in test [12] (setting [17]) and in test [14] (setting [17]) was 0% in each case. Moreover, the pest or weed control at 31 g/ha in [15] (setting [17]) is 0%. Moreover, in test [8] (setting [17]), the plant injury at 31 g/ha turned out to be 0%. Besides, in test [13], the Corn plant response rating (crop injury, 0 = no effect, 100 = complete kill) at 125 g/ha was determined as 0%. The molecule further gave a Corn plant response rating (crop injury, 0 = no effect, 100 = complete kill) at 31 g/ha in test [13] (setting [17]) of 0%.

Take `CSc1ccccc1NC(=O)[C@H]1C(=S)NC[C@@H]1c1ccc(C)c(C)c1` [Compound 766]: the pest or weed control at 125 g/ha in [1], in test [2], in test [3], in test [4] (preemergence), in test [5] and in test [6] was 0% each time. Besides, the pest or weed control at 125 g/ha in test [7] turned out to be 10%; in test [9] it was 0%; in test [10], 0%; in test [11], 0%; in test [12], 0%; in [14], 0%. Moreover, the pest or weed control at 125 g/ha in test [15] worked out at 0%. Besides, the pest or weed control at 500 g/ha worked out at 0% in [1], 0% in [2], 0% in test [3] and 40% in test [5]. In [8], the plant injury at 125 g/ha was found to be 0%. In [13], this molecule showed a Corn plant response rating (crop injury, 0 = no effect, 100 = complete kill) at 125 g/ha of 0%.
